Patent US12509460B2 (Skyhawk Therapeutics, Inc., priority 2019, dated 2025)
Where two headings read alike, the source gives them in different places.

Columns and labels:
[1] = tested on: SMN protein in spinal muscular atrophy (SMA) patient fibroblasts (GM03813, Coriell); assay: SMN protein assay, Mesoscale Discovery (MSD); assay type: cell-based, human; conditions: for EC50: SMA patient fibroblasts GM03813, 48 hours, MSD, read-out: SMN2 protein EC50
In short: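 SMA patient fibroblasts (GM03813) seeded at 7000 cells/well and exposed to compound at 2.5 μM to 0.6 nM for 48 hours. Lysates assayed for SMN by MSD immunoassay, with absolute SMN amount calculated from a per-plate SMN standard curve (1 μg/ml to 19.5 pg/ml).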

[2] = Quantitative splicing assay (HTT), qPCR; assay type: cell-based, human; conditions: Homo sapiens, GM04724, 24 h, GM04724 lymphoblasts, read-out: HTT Splicing: E49-50 EC50
Protocol: Example A9: Quantitative Splicing Assay (HTT)
GM04724 (CAG 70/20) Huntington's disease patient lymphoblasts (Coriell) are plated in 96-well v-bottom plates at 50,000 cells/well. Immediately after plating, cells are dosed with compound for 24 h at concentrations ranging from 2.5 uM to 0.15 nM (0.1% DMSO). Treated cells are lysed and cDNA synthesized using the Fast Advanced Cells-to-Ct kit (Thermofisher A35378) according to the manufacturer's instructions. 2 uL of each cDNA are used in qPCR reactions to confirm the compound-induced inclusion of a cryptic exon within intron 49 of the Huntingtin (HTT) transcripts. The qPCR reactions are prepared in 384-well plates in 10 uL volume, using TagMan™ Fast Advanced Master Mix [ThermoFisher, 4444965] with primers and probes shown in the table below. Reactions are run in a Quant studio 6 qPCR instrument with default settings.

[3] = tested on: MDR1-MDCK cell monolayers; assay: Blood-brain-barrier (BBB) penetration potential via MDCK-MDR1 permeability assay
MDR1 (P-gp) = assay: as above; conditions: dog; for Papp A→B at 120 min, 5 μM: MDCK-MDR1, pH 7.4, MDCK-MDR1: Papp A-B; for Papp B→A at 120 min, 5 μM: MDCK-MDR1, pH 7.4, MDCK-MDR1: Papp B-A
MDR1 = assay: as above; conditions: dog, MDCK-MDR1, pH 7.4, MDCK-MDR1: Efflux
[4] = tested on: mHTT protein in GM04724 (CAG 70/20) Huntington's disease patient lymphoblast cells; assay: mHTT protein assay, 2B7-MW1 assay via Mesoscale Discovery (MSD); assay type: cell-based, human
In short: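 Patient lymphoblasts treated 48 h with compound from 10 μM to 0.6 nM. mHTT quantified by MSD 2B7-MW1 immunoassay, whose signal depends on polyQ expansion and HTT size. Viability measured on a replicate plate by CellTiter Glo.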

[5] = GM04724 Huntington's disease patient lymphoblasts

Row | SMILES | EC50 [1] | EC50 ([2]; qPCR) | MDCK-MDR1: % Recov A-B ([3]; A-B direction) | MDCK-MDR1: % Recov B-A ([3]; B-A direction) | Papp A→B at 120 min, 5 μM (MDR1 (P-gp); A-B direction) | Papp B→A at 120 min, 5 μM (MDR1 (P-gp); B-A direction) | efflux ratio at 120 min, 5 μM (MDR1; efflux ratio) | EC50 [4, 5] | SMN2 protein EC50 ([1]; SMA patient fibroblasts (GM03813), 48 hours) | EC50 [2] | MDCK-MDR1: % Recov A-B ([3]; A-B) | MDCK-MDR1: % Recov B-A ([3]; B-A) | Papp A→B at 120 min, 5 μM (MDR1 (P-gp); A-B) | Papp B→A at 120 min, 5 μM (MDR1 (P-gp); B-A) | efflux ratio at 120 min, 5 μM (MDR1) | EC50 ([4]; GM04724 (CAG 70/20) Huntington's disease patient lymphoblasts)
1 | CN(c1ccc(-c2ccc(-c3cnn(C)c3)cc2O)nn1)C1CC2COCC(N2)C1F (single isomer, unassigned) [Compound 80A] | 101 to 500 nM | 51 to 100 nM | 68% | 88% | 4.93 ×10⁻⁶ cm/s | 53.6 ×10⁻⁶ cm/s | 11 | 51 to 100 nM |  |  |  |  |  |  |  | 
2 | CN(c1ccc(-c2ccc(-n3nccn3)cc2O)nn1)[C@H]1C[C@@H]2CCC[C@@H](N2)[C@H]1F [Compound 5B, 2-(6-(((1R,2R,3S,5S)-2-fluoro-9-azabicyclo[3.3.1]nonan-3-yl)(methyl)amino)pyridazin-3-yl)-5-(2H-1,2,3-triazol-2-yl)phenol] | 101 to 500 nM | 0.01 to 15 nM | 30% | 52% | 5.84 ×10⁻⁶ cm/s | 9.91 ×10⁻⁶ cm/s | 2 | 0.01 to 15 nM |  |  |  |  |  |  |  | 
3 | CN(c1ccc(-c2cc3cnccc3cc2O)nn1)[C@@H]1C[C@H]2CCC[C@H](N2)[C@@H]1F [Compound 121A, 7-(6-(((1S,2S,3R,5R)-2-fluoro-9-azabicyclo[3.3.1]nonan-3-yl)(methyl)amino)pyridazin-3-yl)isoquinolin-6-ol] |  |  |  |  |  |  |  |  | E (501 ≤ E ≤ 10.000) | 51 to 100 nM | 81% | 95% | 2.65 ×10⁻⁶ cm/s | 29.8 ×10⁻⁶ cm/s | 11 | 16 to 50 nM
4 | Cc1cnc(-c2ccc(-c3ccc(N(C)C4CC5CCC(N5)C4F)nn3)c(O)c2)o1 (single isomer, unassigned) [Compound 48B] | 0.01 to 15 nM | 16 to 50 nM | 67% | 84% | 6.56 ×10⁻⁶ cm/s | 24.5 ×10⁻⁶ cm/s | 4 | 16 to 50 nM |  |  |  |  |  |  |  | 
5 | CN(c1ccc(-c2ccc(-c3cnn(C)c3)cc2O)nn1)[C@@H]1C[C@H]2CC(F)(F)[C@@H](C1)N2 [Compound 3A, 2-(6-(((1S,3R,5R)-6,6-difluoro-8-azabicyclo[3.2.1]octan-3-yl)(methyl)amino)pyridazin-3-yl)-5-(1-methyl-1H-pyrazol-4-yl)phenol] | 16 to 50 nM | 0.01 to 15 nM | 75% | 81% | 19.3 ×10⁻⁶ cm/s | 33.8 ×10⁻⁶ cm/s | 2 | 16 to 50 nM |  |  |  |  |  |  |  | 
6 | CN(c1ccc(-c2ccc(-n3ccnc3)cc2O)nn1)[C@@H]1C[C@H]2CC(F)(F)[C@@H](C1)N2 [Compound 13A, 2-(6-(((1S,3R,5R)-6,6-difluoro-8-azabicyclo[3.2.1]octan-3-yl)(methyl)amino)pyridazin-3-yl)-5-(1H-imidazol-1-yl)phenol] | 0.01 to 15 nM | 0.01 to 15 nM | 92% | 86% | 8.7 ×10⁻⁶ cm/s | 50.5 ×10⁻⁶ cm/s | 6 | 16 to 50 nM |  |  |  |  |  |  |  | 
7 | CN(c1ccc(-c2cc3ccncc3s2)nn1)[C@H]1C[C@@H]2CC[C@@H](N2)[C@H]1F [Compound 65B, (1R,2R,3S,5S)-2-fluoro-N-methyl-N-(6-(thieno[2,3-c]pyridin-2-yl)pyridazin-3-yl)-8-azabicyclo[3.2.1]octan-3-amine] | 16 to 50 nM | 101 to 500 nM | 84% | 87% | 6.9 ×10⁻⁶ cm/s | 54.6 ×10⁻⁶ cm/s | 8 | 51 to 100 nM |  |  |  |  |  |  |  | 
